{"source": "ChEMBL document CHEMBL1158838", "about": "“Immunosuppressive iridoids from the fruits of Gardenia jasminoides” (J Nat Prod, 2005)", "key": {"T-cell [1]": {"tested_on": "T-cell", "assay": "Immunosuppressive activity against human peripheral blood T cells assessed as inhibition of PMA and anti-CD28 monoclonal antibody-costimulated IL2 secretion at 100 ug/ml by ELISA", "format": "functional, cell-based"}, "T-cell [2]": {"tested_on": "T-cell", "assay": "Immunosuppressive activity against human peripheral blood T cells assessed as inhibition of PMA and anti-CD28 monoclonal antibody-costimulated IL2 secretion at 50 ug/ml by ELISA", "format": "functional, cell-based"}}, "note": "Calls of active or inactive are those of the source. The rule behind the calls is not given here.", "data": [{"smiles": "COC(=O)C1=CO[C@@H](O[C@@H]2O[C@H](CO)[C@@H](O)[C@H](O)[C@H]2O)[C@@H]2C(CO)=C[C@@H](O)[C@H]12", "values": [{"measurement": "Activity", "setting": "T-cell [1]", "result": "Active"}]}, {"smiles": "COC(=O)C1=CO[C@@H](O[C@@H]2O[C@H](CO)[C@@H](O)[C@H](O)[C@H]2O)[C@@H]2C(CO)=C[C@H](O)[C@H]12", "values": [{"measurement": "Activity", "setting": "T-cell [1]", "result": "Active"}, {"measurement": "Activity", "setting": "T-cell [2]", "result": "Active"}]}, {"smiles": "C[C@]1(O)C[C@H](O)[C@@H]2C(C=O)=CO[C@@H](O[C@@H]3O[C@H](CO)[C@@H](O)[C@H](O)[C@H]3O)[C@@H]21", "values": [{"measurement": "Activity", "setting": "T-cell [1]", "result": "Active"}, {"measurement": "Activity", "setting": "T-cell [2]", "result": "Active"}]}, {"smiles": "COC(=O)C1=CO[C@@H](O[C@@H]2O[C@H](CO)[C@@H](O)[C@H](O)[C@H]2O)[C@@H]2C(CO)=CC[C@H]12", "values": [{"measurement": "Activity", "setting": "T-cell [1]", "result": "Active"}, {"measurement": "Activity", "setting": "T-cell [2]", "result": "Active"}]}, {"smiles": "COC(=O)C1=CO[C@@H](O[C@@H]2O[C@H](CO[C@@H]3O[C@H](CO)[C@@H](O)[C@H](O)[C@H]3O)[C@@H](O)[C@H](O)[C@H]2O)[C@@H]2C(CO)=CC[C@H]12", "values": [{"measurement": "Activity", "setting": "T-cell [1]", "result": "Active"}]}, {"smiles": "C[C@]1(O)C[C@@H](O)[C@@H]2C(C(=O)O)=CO[C@@H](O[C@@H]3O[C@H](CO)[C@@H](O)[C@H](O)[C@H]3O)[C@@H]21", "values": [{"measurement": "Activity", "setting": "T-cell [1]", "result": "Active"}, {"measurement": "Activity", "setting": "T-cell [2]", "result": "Active"}]}]}
